Test results from the NIST ThermoML archive (doi:10.1016/j.jct.2011.05.018).

Test: xn = mol fraction of the nth substance listed
Conditions: 101 kPa, Liquid; for viscosity: Capillary tube (Ostwald / Ubbelohde) method; for speed of sound: Pulse-echo method; for mass density: Pycnometric method

Cc1ccc(O)cc1 [4-methylphenol] + COc1ccc(C=O)cc1
x2 = 0
Conditions	mass density [kg/m3]	speed of sound [m/s]	viscosity [mPa·s]
303.15 K	1026.5	1468.4	9.54
308.15 K	1022	1455.8	8.119
313.15 K	1018.1	1443.7	6.741
318.15 K	1013.9	1432.7	5.469

Cc1ccccc1O [2-methylphenol] + COc1ccc(C=O)cc1
x2 = 0
Conditions	mass density [kg/m3]	speed of sound [m/s]	viscosity [mPa·s]
303.15 K	1036.2	1485.3	7.479
308.15 K	1031	1466.8	5.963
313.15 K	1026	1452.1	4.238
318.15 K	1021.1	1437.1	2.215

COc1ccc(C=O)cc1 [4-methoxybenzaldehyde] + Cc1ccc(O)cc1
Conditions	mass density [kg/m3]	speed of sound [m/s]	viscosity [mPa·s]
303.15 K, x1 = 0.0882	1032.1	1492	9.142
303.15 K, x1 = 0.1788	1038.5	1511.2	8.618
303.15 K, x1 = 0.2717	1044.6	1532.1	8.086
303.15 K, x1 = 0.3673	1053	1553.5	7.524
303.15 K, x1 = 0.4654	1061.2	1575.9	7.064
303.15 K, x1 = 0.5663	1068.4	1599.1	6.543
303.15 K, x1 = 0.6701	1076.7	1622.7	5.753
303.15 K, x1 = 0.7769	1089.3	1646.6	5.04
303.15 K, x1 = 0.8868	1105.6	1671.3	4.265
303.15 K, x1 = 1	1125.2	1694.3	3.251
308.15 K, x1 = 0.0882	1027.7	1477	7.824
308.15 K, x1 = 0.1788	1033	1496.4	7.419
308.15 K, x1 = 0.2717	1038.6	1516.2	7.002
308.15 K, x1 = 0.3673	1045.9	1536.6	6.568
308.15 K, x1 = 0.4654	1053	1558	6.218
308.15 K, x1 = 0.5663	1060.5	1580.1	5.826
308.15 K, x1 = 0.6701	1066.8	1602.5	5.158
308.15 K, x1 = 0.7769	1077.5	1625.2	4.604
308.15 K, x1 = 0.8868	1093	1648.6	3.965
308.15 K, x1 = 1	1111.6	1670.7	3.131
313.15 K, x1 = 0.0882	1024.2	1462.2	6.529
313.15 K, x1 = 0.1788	1029.7	1479.1	6.242
313.15 K, x1 = 0.2717	1035.9	1496.4	5.913
313.15 K, x1 = 0.3673	1044	1514.2	5.582
313.15 K, x1 = 0.4654	1050.3	1533	5.339
313.15 K, x1 = 0.5663	1057.6	1552.4	5.07
313.15 K, x1 = 0.6701	1065.6	1572	4.541
313.15 K, x1 = 0.7769	1076.5	1591.7	4.099
313.15 K, x1 = 0.8868	1091.7	1612	3.609
313.15 K, x1 = 1	1109.5	1631.3	2.961
318.15 K, x1 = 0.0882	1020	1445.1	5.316
318.15 K, x1 = 0.1788	1027.2	1456.5	5.115
318.15 K, x1 = 0.2717	1033.9	1467.9	4.87
318.15 K, x1 = 0.3673	1042.1	1479.6	4.616
318.15 K, x1 = 0.4654	1048.9	1492.3	4.431
318.15 K, x1 = 0.5663	1055.4	1505.4	4.259
318.15 K, x1 = 0.6701	1063	1518.5	3.861
318.15 K, x1 = 0.7769	1073.7	1531.2	3.523
318.15 K, x1 = 0.8868	1088.9	1544.7	3.163
318.15 K, x1 = 1	1104.7	1557	2.682

COc1ccc(C=O)cc1 [4-methoxybenzaldehyde] + Cc1cccc(O)c1
Conditions	mass density [kg/m3]	speed of sound [m/s]	viscosity [mPa·s]
303.15 K, x1 = 0.0883	1031.6	1487.6	8.513
303.15 K, x1 = 0.1789	1037.8	1507.8	8.028
303.15 K, x1 = 0.2719	1044	1528.6	7.569
303.15 K, x1 = 0.3674	1052.6	1550.3	7.051
303.15 K, x1 = 0.4656	1060.7	1572.5	6.528
303.15 K, x1 = 0.5665	1068	1595.6	5.969
303.15 K, x1 = 0.6703	1076.4	1619.1	5.331
303.15 K, x1 = 0.777	1088	1643.4	4.593
303.15 K, x1 = 0.8869	1104.5	1668.4	3.93
303.15 K, x1 = 1	1125.2	1694.3	3.251
308.15 K, x1 = 0.0883	1026.7	1471.4	7.108
308.15 K, x1 = 0.1789	1032.4	1490.9	6.747
308.15 K, x1 = 0.2719	1038	1511	6.421
308.15 K, x1 = 0.3674	1045.4	1532.1	6.046
308.15 K, x1 = 0.4656	1052.3	1553.4	5.659
308.15 K, x1 = 0.5665	1060	1575.6	5.237
308.15 K, x1 = 0.6703	1066.1	1598.2	4.741
308.15 K, x1 = 0.777	1077.2	1621.6	4.151
308.15 K, x1 = 0.8869	1092.6	1645.7	3.648
308.15 K, x1 = 1	1111.6	1670.7	3.131
313.15 K, x1 = 0.0883	1022.8	1455.7	5.894
313.15 K, x1 = 0.1789	1028.4	1473.1	5.629
313.15 K, x1 = 0.2719	1034.8	1490.7	5.393
313.15 K, x1 = 0.3674	1042.8	1509.2	5.13
313.15 K, x1 = 0.4656	1049.1	1528.1	4.858
313.15 K, x1 = 0.5665	1056.8	1547.6	4.555
313.15 K, x1 = 0.6703	1064.4	1567.4	4.181
313.15 K, x1 = 0.777	1075.1	1588.1	3.724
313.15 K, x1 = 0.8869	1090.9	1609.3	3.34
313.15 K, x1 = 1	1109.5	1631.3	2.961
318.15 K, x1 = 0.0883	1019.2	1437.7	4.849
318.15 K, x1 = 0.1789	1026.5	1449.6	4.655
318.15 K, x1 = 0.2719	1033.4	1461.5	4.47
318.15 K, x1 = 0.3674	1041.6	1474.1	4.272
318.15 K, x1 = 0.4656	1048.2	1487	4.085
318.15 K, x1 = 0.5665	1055.2	1500.1	3.868
318.15 K, x1 = 0.6703	1062.5	1513.5	3.586
318.15 K, x1 = 0.777	1073.3	1527.5	3.236
318.15 K, x1 = 0.8869	1088.4	1542	2.949
318.15 K, x1 = 1	1104.7	1557	2.682

COc1ccc(C=O)cc1 [4-methoxybenzaldehyde] + Cc1ccccc1O
Conditions	mass density [kg/m3]	speed of sound [m/s]	viscosity [mPa·s]
303.15 K, x1 = 0.0875	1039.2	1507.7	7.163
303.15 K, x1 = 0.1774	1044.2	1526.3	6.824
303.15 K, x1 = 0.2699	1050.1	1545.5	6.519
303.15 K, x1 = 0.3651	1058.5	1565	6.202
303.15 K, x1 = 0.4631	1067.1	1585.2	5.778
303.15 K, x1 = 0.564	1074.3	1611.2	5.319
303.15 K, x1 = 0.668	1081.3	1637	4.811
303.15 K, x1 = 0.7753	1093.2	1658.9	4.261
303.15 K, x1 = 0.8859	1106.6	1681.5	3.758
303.15 K, x1 = 1	1125.2	1694.3	3.251
308.15 K, x1 = 0.0875	1033.8	1488.3	5.762
308.15 K, x1 = 0.1774	1038.2	1506.2	5.54
308.15 K, x1 = 0.2699	1043.4	1524.9	5.361
308.15 K, x1 = 0.3651	1050.6	1544.2	5.168
308.15 K, x1 = 0.4631	1058.4	1564	4.874
308.15 K, x1 = 0.564	1065	1589.4	4.56
308.15 K, x1 = 0.668	1071.5	1613.8	4.196
308.15 K, x1 = 0.7753	1082.8	1635.2	3.815
308.15 K, x1 = 0.8859	1095.3	1657.2	3.475
308.15 K, x1 = 1	1111.6	1670.7	3.131
313.15 K, x1 = 0.0875	1030.2	1470.7	4.162
313.15 K, x1 = 0.1774	1034.7	1486.3	4.072
313.15 K, x1 = 0.2699	1040.9	1502.6	4.007
313.15 K, x1 = 0.3651	1047.3	1519.6	3.936
313.15 K, x1 = 0.4631	1055.4	1536.9	3.806
313.15 K, x1 = 0.564	1062.1	1560.3	3.673
313.15 K, x1 = 0.668	1070	1580	3.494
313.15 K, x1 = 0.7753	1082.1	1598.1	3.291
313.15 K, x1 = 0.8859	1094.9	1617.6	3.126
313.15 K, x1 = 1	1109.5	1631.3	2.961
318.15 K, x1 = 0.0875	1026.3	1449.6	2.269
318.15 K, x1 = 0.1774	1031.9	1460.1	2.313
318.15 K, x1 = 0.2699	1038.3	1470.9	2.363
318.15 K, x1 = 0.3651	1044.3	1482.2	2.414
318.15 K, x1 = 0.4631	1052.8	1493.9	2.451
318.15 K, x1 = 0.564	1059.5	1511.3	2.496
318.15 K, x1 = 0.668	1067.7	1524.3	2.543
318.15 K, x1 = 0.7753	1078.8	1536.6	2.589
318.15 K, x1 = 0.8859	1090.1	1549.5	2.631
318.15 K, x1 = 1	1104.7	1557	2.682

Cc1cccc(O)c1 [3-methylphenol] + COc1ccc(C=O)cc1
x2 = 0
Conditions	mass density [kg/m3]	speed of sound [m/s]	viscosity [mPa·s]
303.15 K	1025.8	1464.2	8.929
308.15 K	1021.5	1449.3	7.412
313.15 K	1017	1436.3	6.116
318.15 K	1013.5	1424.2	5.019
